Read-outs that look alike come from different tables or passages of the source.
What was measured:
[1] = target: T1, RUNX1-BCR protein (Homo sapiens, UniProt P11274+Q01196); assay: ELISA: tetramer-dependent binding of RUNX1-BCR protein to immobilized RUNX3 oligonucleotide (selectivity control); assay type: biochemical; conditions: for inhibition at 1000 µM: relative inhibition at 1 mM inhibitor concentration
T1 construct: replacing the NHR2 domain of the construct with the homologous BCR tetramerization domain (RUNX1-BCR protein); His6 (C); made in house; host or cells: E. coli BL21(DE3)
T1 sequence (Q01196+P11274 fused): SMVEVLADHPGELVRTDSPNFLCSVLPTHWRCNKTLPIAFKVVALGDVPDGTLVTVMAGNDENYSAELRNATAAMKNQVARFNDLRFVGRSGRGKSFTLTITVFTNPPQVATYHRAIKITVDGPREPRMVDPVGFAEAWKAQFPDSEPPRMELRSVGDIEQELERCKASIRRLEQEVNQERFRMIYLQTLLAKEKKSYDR

[2] = target: T1, RUNX1-BCR protein; assay: ABCD (avidin, biotin, complex, DNA) assay with RUNX1-BCR protein; assay type: biochemical; conditions: for inhibition at 1000 µM: read-out: ABCD Inhibition [%] BCR
Method: (§1) Oligonucleotides were annealed to the corresponding unmodified antisense oligonucleotide to generate the RUNX1 binding site. Purified RUNX1 proteins were pre-incubated with a compound for 1 h at 4° C. Similarly the biotinylated double-stranded oligonucleotides were pre-incubated with streptavidin coated magnetic beads (Dynabeads M-280 Streptavidin, Invitrogen) for 1 h at 4° C. Protein/compound samples and beads with bound oligonucleotide were incubated in binding buffer (25 mM HEPES, pH 7.5, 50 mM KCl, 1 mM EDTA, pH 8.0, 10 mM MgCl2, 5% glycerol, 1 mM DTT) in the presence of 2% IGEPAL CA-630, 1 μg of salmon sperm, and 0.1% BSA for […]. After washing three times, the bound proteins were eluted from beads in SDS-PAGE sample buffer and resolved on SDS-PAGE followed by immunoblotting with a primary anti-myc (9E10, Santa Cruz) antibody and a secondary HRP-coupled antibody (goat anti-mouse IgG-HRP, Santa Cruz).

[3] = target: T2, RUNX1-NHR2 protein (Homo sapiens, UniProt Q01196+Q06455); assay: ABCD (avidin, biotin, complex, DNA) assay with RUNX1-NHR2 protein; assay type: biochemical; conditions: for inhibition at 1000 µM: read-out: ABCD Inhibition [%] NHR2
T2 construct: the wild type NHR2 tetramerization domain or the homologous BCR tetramerization domain (highlighted) are optionally enclosed by an N-terminal RUNX1 domain; His6 (C); made in house; host or cells: E. coli BL21(DE3)
T2 sequence (Q01196+Q06455 fused): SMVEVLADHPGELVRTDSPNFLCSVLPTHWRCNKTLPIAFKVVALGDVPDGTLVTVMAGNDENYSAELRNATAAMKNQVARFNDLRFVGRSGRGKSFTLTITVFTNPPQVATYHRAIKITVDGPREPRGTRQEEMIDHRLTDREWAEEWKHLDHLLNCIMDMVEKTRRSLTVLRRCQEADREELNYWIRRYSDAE
Method: as §1

[4] = target: T2, RUNX1-NHR2 protein; assay: ELISA: tetramer-dependent binding of RUNX1-NHR2 protein to immobilized RUNX3 oligonucleotide; assay type: biochemical; conditions: for inhibition of tetramer-dependent binding of the RUNX1-NHR2 protein to immobilized RUNX3 oligonucleotide, ELISA: [P1]=500 μM and [PPIM]=2000 μM in ELISA; for inhibition at 2000 µM / inhibition at 1000 µM: read-out: ELISA Inhibition [%] NHR2; for inhibition at 1000 µM: relative inhibition at 1 mM inhibitor concentration
Method: Preferably, for enzyme-linked immunosorbent assays (ELISA), wells of a 96 well plate were coated with 100 ng streptavidin (Dianova) in PBS over night at 4° C. […] Binding of RUNX1-containing proteins to the R3 oligonucleotide was detected with a primary anti-myc antibody (9E10, Santa Cruz) and a secondary HRP-coupled antibody (donkey anti-mouse IgG-HRP, Santa Cruz). ELISA was developed using the Sure Blue TMB Microwell Peroxidase substrate (KLP), and the reaction was stopped with sulfuric acid (1 N). Absorption at 450 nm and 650 nm was measured with the Spectra Max 340, Molecular Devices. Preferably, the ELISA assay is as further described in the experimental section.
The inhibition of NHR2 tetramerization was measured in vitro by tetramer-dependent binding of a RUNX1-NHR2 protein construct to an immobilized oligonucleotide derived from the RUNX3 promoter sequence in ELISA and ABCD assays. […] Furthermore, the influence of the inhibitors on the viability of RUNX1/ETO-dependent SKNO-1 cells was determined; as a control RUNX1/ETO-independent U937 cells were used.
The principle of the biochemical assays for measuring inhibition of NHR2 tetramerization is illustrated in FIG. 1. NHR2 tetramerization and its inhibition was measured in a purpose-built sandwich ELISA (enzyme-linked immunosorbent assay: FIG. 1A). • i) The RUNX1-NHR2 tetramer specifically binds to the biotinylated RUNX3-oligonucleotide (RUNX3-oligo^bio) that is immobilized on a streptavidine coated surface (SA). Disrupting the RUNX1-NHR2 tetramer into dimers leads to a release of the RUNX1-NHR2 protein from the surface. Antibody-conjugated horseradish peroxidase (HRP) binds to a primary anti-myc antibody (α-myc AB) that binds to the immobilized myc-labeled RUNX1-NHR2 tetramer. HRP catalyzes the conversion of 3,3′,5,5′-tetramethylbenzidine (TMB) to 3,3′,5,5-tetramethylbenzidine diimine.
Wells of a 96 well plate were coated with 100 ng streptavidin (Dianova) in PBS over night at 4° C. […] RUNX1-containing proteins were incubated with synthetic peptides or chemical compounds in binding buffer (25 mM HEPES, pH 7.5, 50 mM KCl, 1 mM EDTA, pH 8.0, 10 mM MgCl2, 5% glycerol, 1 mM DTT) in the presence of 1 μg salmon sperm and 1% IGEPAL CA-630 for 5 h and subsequently added to the streptavidin-bound R3 oligonucleotide for 15 min on the 96 well plate. Binding of RUNX1-containing proteins to the R3 oligonucleotide was detected with a primary anti-myc antibody (9E10, Santa Cruz) and a secondary HRP-coupled antibody (donkey anti-mouse IgG-HRP, Santa Cruz). ELISA was developed using the Sure Blue TMB Microwell Peroxidase substrate (KLP), and the reaction was stopped with sulfuric acid (1 N). Absorption at 450 nm and 650 nm was measured with the Spectra Max 340, Molecular Devices.

[5] = tested on: SKNO-1 cells; assay: FACS analysis of CD11b expression, SKNO-1 cells; assay type: cell-based; conditions: 25 μM for four days, at the day of injection
Method: (§2) For the experiment, the SCID- or SCUD-gamma chain mouse model was used. The experiment investigates if the transplantation of the AML cell line SKNO-1 after treatment with either 7.44 or 7.38 leads to reduced tumor growth. […] For this, the cells were treated in vitro with 25 μM of the respective compound for four days. Furthermore, untreated SKNO-1 and CML cell lines were used. […] At day 5 the number of living cells was determined, and 5×10^5 SKNO-1 cells or 5×10^5 K562 cells were injected per transplant. Per mouse, untreated and treated cells were injected into the left and right flank, respectively.
At the day of injection, the expression of the surface marker CD11b, a measure for cell differentiation, was determined (FIG. 5E) as was the rate of apoptosis (FIG. 5F).

[6] = tested on: SKNO-1 cells; assay: Cell survival assay (XTT), RUNX1/ETO-dependent SKNO-1 cells; assay type: cell-based; conditions: daily treated with 1 μM or 10 μM; XTT at days 3, 5, and 7
Method: Cell proliferation and viability were measured with the cell proliferation kit II (XTT, Roche Applied Science). The XTT assay was performed at days 3, 5, and 7. […] SKNO-1 cells were cultured in RPMI 1640+10% FCS and 7 ng ml^−1 human GM-CSF. […] Cell proliferation and viability were measured with the cell proliferation kit II (XTT, Roche Applied Science). 3000 cells per well were cultured in a 96 well plate and daily treated with compounds at different concentrations. The XTT assay was performed at days 3, 5, and 7.

[7] = tested on: SKNO-1 cells; assay: Xenotransplantation of pre-treated SKNO-1 cells in SCID mice; assay type: in vivo, mouse; conditions: cells treated in vitro with 25 μM for four days, injected subcutaneously, versus untreated cells
Method: The effect of the inhibition of NHR2 tetramerization was measured in a mouse model (xenotransplantation of SKNO-1 and K562 cells in SCID mice).
as §2
For determining the tumor volume, the length and the width of the tumor was measured twice weekly, starting one week after the transplantation (FIGS. 5A and 5B). […] At the end of the experiment, the tumors were freed and weighed (FIGS. 5C and 5D).

[8] = RUNX1-BCR, read-out: ELISA Inhibition [%] BCR
[9] = relative inhibition at 1 mM inhibitor concentration, RUNX1-BCR
[10] = relative inhibition at 1 mM inhibitor concentration, RUNX1-NHR2 protein

inhibition at 1000 µM [1, 8]	inhibition at 1000 µM [2, 9]	inhibition at 1000 µM [3, 10]	inhibition at 1000 µM ([4]; RUNX1-NHR2 protein)	SMILES	inhibition of tetramer-dependent binding of the RUNX1-NHR2 protein to immobilized RUNX3 oligonucleotide, ELISA [4]	other results
				COc1cc(CC(C(=O)O)C(C)C(=O)c2ccc3c(c2)OCO3)cc(OC)c1OC (centres unmarked) [Compound 7.18, 4-(benzo[d][1,3]dioxol-5-yl)-3-methyl-4-oxo-2-(3,4,5-trimethoxybenzyl)butanoic acid]	selectively inhibit	inhibition of binding of the RUNX1-BCR protein, ELISA ([1]; [P1]=500 μM and [PPIM]=2000 μM in ELISA): is not inhibited; inhibition at 2000 µM ([1]; read-out: ELISA Inhibition [%] BCR): -6.7%; inhibition of binding of the RUNX1-BCR protein, ABCD ([2]; c=1100 μM in ABCD assay): is not inhibited; inhibition at 1000 µM [2]: -2.2%; inhibition of tetramer-dependent binding of the RUNX1-NHR2 protein to immobilized RUNX3 oligonucleotide, ABCD ([3]; c=1100 μM in ABCD assay): selectively inhibit; inhibition at 1000 µM [3]: 80.2%; inhibition at 2000 µM [4]: 47.7%
20.7%	14.6%	52.5%	51.7%	Cc1oc(C(=O)O)cc1CSCc1cc(C(=O)O)oc1C [Compound 5.9, 5,5′-dimethyl-4,4′-(sulfanediylbis(methyl))-di(furan-2-carboxylic acid)]		
3.9%	52.6%	83%	80.5%	COc1ccc(OC)c2[nH]c(C(=O)NCC3(CC(=O)O)CCCCC3)cc12 [Compound 5.18, 2-(1-((4,7-dimethoxy-1H-indole-2-carboxamido)methyl)cyclohexyl)acetic acid]		
	26.1%	20.1%		Cc1c(C(=O)O)[nH]c(/C=C/C(=O)O)nc1=O [Compound 7.38, (E)-2-(2-carboxyvinyl)-5-methyl-6-oxo-3,6-dihydropyrimidine-4-carboxylic acid, reference compound]	not	increase of the CD11b expression in SKNO-1 cells [5]: 2%; proliferation of SKNO-1 cells (XTT assay) [6]: did not affect; tumor growth (tumor volume) of transplanted SKNO-1 cells [7]: small reduction; IC50 ([4]; inhibition of tetramerization of the RUNX1-NHR2 protein): > 2000 µM; inhibition at 2000 µM ([4]; measured at 2 mM concentration, RUNX1-NHR2 protein): 4%
	11.8%	49.4%		O=C(O)c1ccccc1OCc1cn2ccccc2n1 [Compound 2b, 2-(imidazo[1,2-a]pyridin-2-ylmethoxy)benzoic acid]		inhibition at 50 µM ([1]; measured at 50 μM concentration, RUNX1-BCR): 41.5%; inhibition at 50 µM ([4]; measured at 50 μM concentration, RUNX1-NHR2 protein): 83.1%
15.9%	95.3%	89.5%	41.7%	Cc1c(CC(=O)NCCC(=O)O)c(=O)oc2c(C)c3occ(C(C)(C)C)c3cc12 [Compound 5.17, 3-(2-(3-tert-butyl-5,9-dimethyl-7-oxo-7H-furo[3,2-g]chromen-6-yl)acetamido)propanoic acid]		
